Earlier results as cited in US20190298660A1, “PHOSPHATE-CROSSLINKED STARCH NANOPARTICLES AND USE FOR DRUG DELIVERY” (GreenMark Biomedical Inc., priority 2018, published 2019).

## COc1cccc2c1C(=O)c1c(O)c3c(c(O)c1C2=O)C[C@@](O)(C(=O)CO)C[C@@H]3O[C@H]1C[C@H](N)[C@H](O)[C@H](C)O1 [doxorubicin]
  pKa: 9.53
